Experimental data from patent publication US7135466B2 (Kirin Beer Kabushiki Kaisha, priority 1999, dated 2006).

Columns and labels:
[1] = target: T1, PDGF-Ra (Homo sapiens, UniProt P16234); experiment: Inhibitory activity against PDGF-Ra phosphorylation by PDGF-AA stimulation using G292; assay type: cell-based; details: for IC50: Pharmacological Test Example 1, > means inhibition at indicated concentration not more than 50%, < and << not less than 50%, read-out: PDGF (E) IC50; for inhibition at 0.1 µM: G292, figure in parentheses in >100( ), at 100 nM, read-out: PDGF (E) inhibition (%) at 100 nM
T1 construct: host or cells: G-292 human osteosarcoma cells
Summary of the method: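 G-292 human osteosarcoma cells, serum-starved overnight in 0.1% FBS, were pretreated with compound in DMSO for 1 hr at 37 °C, then stimulated with 50 ng/ml PDGF-AA for 5 min. Lysates were captured on anti-phosphotyrosine PY-20 plates and probed with anti-PDGF-Ra plus HRP secondary; absorbance read at 450 nm.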

[2] = target: T2, c-kit (Homo sapiens, UniProt P10721); experiment: Inhibitory activity against c-kit autophosphorylation (MO7e cells, h-SCF); assay type: cell-based; details: for IC50: MO7e cells, h-SCF 50 ng/ml, read-out: c-kit IC50
T2 construct: MO7e (human megakaryocytic leukemia cell line) which had been arrested for 20 hr; endogenous in cells; host or cells: MO7e human megakaryocytic leukemia cell line
Summary of the method: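 Ligand-induced c-kit tyrosine phosphorylation is measured in MO7e cells that were quiesced 20 hr and preincubated with compound for 1 hr prior to a 5 min pulse of 50 ng/ml human SCF. Phospho-c-kit is detected by anti-phosphotyrosine capture ELISA, A450.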

T1 sequence (P16234 24-1089): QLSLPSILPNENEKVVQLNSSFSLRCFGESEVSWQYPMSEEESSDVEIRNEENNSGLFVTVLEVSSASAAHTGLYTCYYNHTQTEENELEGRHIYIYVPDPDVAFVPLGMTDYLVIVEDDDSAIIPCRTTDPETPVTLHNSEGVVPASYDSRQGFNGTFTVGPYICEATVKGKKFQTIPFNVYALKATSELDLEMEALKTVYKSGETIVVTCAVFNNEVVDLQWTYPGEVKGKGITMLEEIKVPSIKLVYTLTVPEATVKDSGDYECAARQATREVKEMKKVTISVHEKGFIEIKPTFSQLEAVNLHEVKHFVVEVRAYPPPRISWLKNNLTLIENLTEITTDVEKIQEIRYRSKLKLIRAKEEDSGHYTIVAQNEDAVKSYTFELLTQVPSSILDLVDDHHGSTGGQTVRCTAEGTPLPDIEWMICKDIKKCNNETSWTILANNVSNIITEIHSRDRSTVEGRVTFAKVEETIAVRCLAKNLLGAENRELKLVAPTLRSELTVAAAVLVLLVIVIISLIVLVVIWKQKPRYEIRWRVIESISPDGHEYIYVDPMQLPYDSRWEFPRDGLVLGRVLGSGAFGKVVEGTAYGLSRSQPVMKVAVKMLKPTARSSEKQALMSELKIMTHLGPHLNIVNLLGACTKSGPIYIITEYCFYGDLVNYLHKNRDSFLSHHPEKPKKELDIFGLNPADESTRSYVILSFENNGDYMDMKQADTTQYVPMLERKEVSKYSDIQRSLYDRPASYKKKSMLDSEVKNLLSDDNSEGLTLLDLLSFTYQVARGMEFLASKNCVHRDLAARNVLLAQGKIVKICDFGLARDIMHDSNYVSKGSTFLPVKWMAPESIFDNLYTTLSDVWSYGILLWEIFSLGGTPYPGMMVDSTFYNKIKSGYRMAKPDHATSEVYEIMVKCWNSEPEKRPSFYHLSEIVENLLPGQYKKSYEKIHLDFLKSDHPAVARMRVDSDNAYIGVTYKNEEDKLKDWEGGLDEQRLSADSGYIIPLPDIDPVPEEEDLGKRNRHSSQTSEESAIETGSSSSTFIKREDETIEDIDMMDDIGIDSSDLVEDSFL
T2 sequence (P10721 26-976): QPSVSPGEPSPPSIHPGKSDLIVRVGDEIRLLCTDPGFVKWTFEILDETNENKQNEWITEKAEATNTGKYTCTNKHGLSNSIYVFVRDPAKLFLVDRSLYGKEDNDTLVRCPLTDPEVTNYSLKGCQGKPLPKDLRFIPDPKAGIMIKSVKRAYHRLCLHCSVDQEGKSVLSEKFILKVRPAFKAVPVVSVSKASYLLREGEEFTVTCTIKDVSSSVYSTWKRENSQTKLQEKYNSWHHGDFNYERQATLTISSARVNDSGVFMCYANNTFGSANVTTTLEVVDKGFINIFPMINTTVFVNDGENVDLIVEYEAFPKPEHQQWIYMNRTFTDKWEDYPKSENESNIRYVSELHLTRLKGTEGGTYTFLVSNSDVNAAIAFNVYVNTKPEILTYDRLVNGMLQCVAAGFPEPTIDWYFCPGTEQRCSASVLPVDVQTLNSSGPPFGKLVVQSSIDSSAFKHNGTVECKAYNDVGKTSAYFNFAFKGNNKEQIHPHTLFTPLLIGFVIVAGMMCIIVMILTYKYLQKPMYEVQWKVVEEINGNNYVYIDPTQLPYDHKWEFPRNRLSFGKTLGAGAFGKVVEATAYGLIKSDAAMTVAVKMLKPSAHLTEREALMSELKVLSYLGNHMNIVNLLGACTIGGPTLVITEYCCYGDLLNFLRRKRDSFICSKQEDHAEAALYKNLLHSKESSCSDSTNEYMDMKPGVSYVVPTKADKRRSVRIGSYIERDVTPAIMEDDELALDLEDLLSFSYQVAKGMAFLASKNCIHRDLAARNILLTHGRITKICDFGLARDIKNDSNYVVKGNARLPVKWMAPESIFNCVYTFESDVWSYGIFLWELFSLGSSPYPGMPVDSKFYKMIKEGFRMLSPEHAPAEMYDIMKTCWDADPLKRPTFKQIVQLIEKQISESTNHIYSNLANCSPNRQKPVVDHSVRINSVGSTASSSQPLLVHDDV

Compound	IC50 [1]	IC50 [2]	inhibition at 0.1 µM [1]	inhibition at 1 µM ([2]; Mo7e, figure in parentheses in −( ), at 1000 nM)
COc1cc2nccc(Oc3ccc(NC(=O)OCCCOc4ccc(Cl)cc4)c(C)c3C)c2cc1OC [Example 28, 3-(4-Chlorophenoxy)propyl N-{4-[(6,7-dimethoxy-4-quinolyl)oxy]-2,3-dimethylphenyl}carbamate]	< 10 nM	118 nM		
COc1cc2nccc(Oc3cc(C)c(NC(=O)OCCCOc4ccc(Cl)cc4)cc3C)c2cc1OC [Example 29, 3-(4-Chlorophenoxy)propyl N-{4-[(6,7-dimethoxy-4-quinolyl)oxy]-2,5-dimethylphenyl}carbamate]	27 nM	121 nM		
COc1ccc(C(C)OC(=O)Nc2ccc(Oc3ccnc4cc(OC)c(OC)cc34)cc2)cc1 (stereo not shown) [Example 32, 1-(4-Methoxyphenyl)ethyl N-{4-[(6,7-dimethoxy-4-quinolyl)oxy]phenyl}carbamate]	16 nM	227 nM		
COc1ccc(C(C)OC(=O)Nc2ccc(Oc3ccnc4cc(OC)c(OC)cc34)c(C)c2C)cc1 (stereo not shown) [Example 33, 1-(4-Methoxyphenyl)ethyl N-{4-[(6,7-dimethoxy-4-quinolyl)oxy]-2,3-dimethylphenyl}carbamate]	23 nM	362 nM		
COc1ccc(C(C)OC(=O)Nc2cc(C)c(Oc3ccnc4cc(OC)c(OC)cc34)cc2C)cc1 (stereo not shown) [Example 34, 1-(4-Methoxyphenyl)ethyl N-{4-[(6,7-dimethoxy-4-quinolyl)oxy]-2,5-dimethylphenyl}carbamate]	> 100 nM	800 nM	45%	
COc1ccc(C(C)OC(=O)Nc2ccc(Oc3ncnc4cc(OC)c(OC)cc34)cc2)cc1 (stereo not shown) [Example 35, 1-(4-Methoxyphenyl)ethyl N-{4-[(6,7-dimethoxy-4-quinazolinyl)oxy]phenyl}carbamate]	< 10 nM	342 nM		
COc1cc2nccc(Oc3ccc(NC(=O)OCCCSc4ccc(C)cc4)cc3)c2cc1OC [Example 37, 3-[(4-Methylphenyl)sulfanyl)propyl N-{4-[(6,7-dimethoxy-4-quinolyl)oxy]phenyl}carbamate]	< 10 nM	< 30 nM		
COc1cc2nccc(Oc3ccc(NC(=O)OCCCSc4ccc(C)cc4)c(C)c3C)c2cc1OC [Example 38]	< 10 nM	33 nM		
COc1cc2nccc(Oc3cc(C)c(NC(=O)OCCCSc4ccc(C)cc4)cc3C)c2cc1OC [Example 39, 3-[(4-Methylphenyl)sulfanyl)propyl N-{4-[(6,7-dimethoxy-4-quinolyl)oxy]-2,5-dimethylphenyl}-carbamate]	< 10 nM	56 nM		
COc1ccc(OCCCOC(=O)Nc2ccc(Oc3ccnc4cc(OC)c(OC)cc34)cc2)cc1 [Example 42, 3-(4-Methoxyphenoxy)propyl N-{4-[(6,7-dimethoxy-4-quinolyl)oxy]phenyl}carbamate]	< 10 nM	73 nM		
COc1cccc(C(C)OC(=O)Nc2ccc(Oc3ccnc4cc(OC)c(OC)cc34)cc2)c1 (stereo not shown) [Example 52, 1-(3-Methoxyphenyl)ethyl N-{4-[(6,7-dimethoxy-4-quinolyl)oxy]phenyl}carbamate]	< 10 nM	273 nM		
COc1cccc(C(C)OC(=O)Nc2ccc(Oc3ccnc4cc(OC)c(OC)cc34)c(C)c2C)c1 (stereo not shown) [Example 53, 1-(3-Methoxyphenyl)ethyl N-{4-[(6,7-dimethoxy-4-quinolyl)oxy]-2,3-dimethylphenyl}carbamate]	< 10 nM	480 nM		
COc1cccc(C(C)OC(=O)Nc2cc(C)c(Oc3ccnc4cc(OC)c(OC)cc34)cc2C)c1 (stereo not shown) [Example 54, 1-(3-Methoxyphenyl)ethyl N-{4-[(6,7-dimethoxy-4-quinolyl)oxy]-2,5-dimethylphenyl}carbamate]	15 nM	473 nM		

The next lines start with the values.

IC50 [1]	IC50 [2]	inhibition at 0.1 µM [1]	inhibition at 1 µM ([2]; Mo7e, figure in parentheses in −( ), at 1000 nM)	Compound
< 10 nM	< 30 nM			COc1cc2ncnc(Oc3ccc(NC(=O)OCCCOc4ccc(Cl)cc4)cc3)c2cc1OC [Example 30, 3-(4-Chlorophenoxy)propyl N-{4-[(6,7-dimethoxy-4-quinazolinyl)oxy]phenyl}carbamate]
< 10 nM	221 nM			COc1cc2ncnc(Oc3ccc(NC(=O)OCCCOc4ccc(Cl)cc4)c(Cl)c3)c2cc1OC [Example 31, 3-(4-Chlorophenoxy)propyl N-{2-chloro-4-[(6,7-dimethoxy-4-quinazolinyl)oxy]phenyl}carbamate]
> 100 nM		34%	19%	COc1ccc(C(C)OC(=O)Nc2ccc(Oc3ncnc4cc(OC)c(OC)cc34)cc2Cl)cc1 (stereo not shown) [Example 36, 1-(4-Methoxyphenyl)ethyl N-{2-chloro-4-[(6,7-dimethoxy-4-quinazolinyl)oxy]phenyl}carbamate]
< 10 nM	55 nM			COc1cc2ncnc(Oc3ccc(NC(=O)OCCCSc4ccc(C)cc4)cc3)c2cc1OC [Example 40, 3-[(4-Methylphenyl)sulfanyl)propyl N-{4-[(6,7-dimethoxy-4-quinazolinyl)oxy]phenyl}carbamate]
< 10 nM	185 nM			COc1cc2ncnc(Oc3ccc(NC(=O)OCCCSc4ccc(C)cc4)c(Cl)c3)c2cc1OC [Example 41, 3-[(4-Methylphenyl)sulfanyl)propyl N-{2-chloro-4-[(6,7-dimethoxy-4-quinazolinyl)oxy]phenyl}-carbamate]
< 10 nM	158 nM			COc1ccc(OCCCOC(=O)Nc2ccc(Oc3ccnc4cc(OC)c(OC)cc34)c(C)c2C)cc1 [Example 43, 3-(4-Methoxyphenoxy)propyl N-{4-[(6,7-dimethoxy-4-quinolyl)oxy]-2,3-dimethylphenyl}carbamate]
19 nM	328 nM			COc1ccc(OCCCOC(=O)Nc2cc(C)c(Oc3ccnc4cc(OC)c(OC)cc34)cc2C)cc1 [Example 44, 3-(4-Methoxyphenoxy)propyl N-{4-[(6,7-dimethoxy-4-quinolyl)oxy]-2,5-dimethylphenyl}carbamate]
< 10 nM	91 nM			COc1ccc(OCCCOC(=O)Nc2ccc(Oc3ncnc4cc(OC)c(OC)cc34)cc2)cc1 [Example 45, 3-(4-Methoxyphenoxy)propyl N-{4-[(6,7-dimethoxy-4-quinazolinyl)oxy]phenyl}carbamate]
22 nM	388 nM			COc1ccc(OCCCOC(=O)Nc2ccc(Oc3ncnc4cc(OC)c(OC)cc34)cc2Cl)cc1 [Example 46, 3-(4-Methoxyphenoxy)propyl N-{2-chloro-4-[(6,7-dimethoxy-4-quinazolinyl)oxy]phenyl}carbamate]
< 10 nM	162 nM			COc1cccc(OCCCOC(=O)Nc2ccc(Oc3ccnc4cc(OC)c(OC)cc34)c(C)c2C)c1 [Example 48, 3-(3-Methoxyphenoxy)propyl N-{4-[(6,7-dimethoxy-4-quinolyl)oxy]-2,3-dimethylphenyl}carbamate]
< 10 nM	50 nM			COc1cccc(OCCCOC(=O)Nc2ccc(Oc3ncnc4cc(OC)c(OC)cc34)cc2)c1 [Example 50, 3-(3-Methoxyphenoxy)propyl N-{4-[(6,7-dimethoxy-4-quinazolinyl)oxy]phenyl}carbamate]
14 nM	270 nM			COc1cccc(OCCCOC(=O)Nc2ccc(Oc3ncnc4cc(OC)c(OC)cc34)cc2Cl)c1 [Example 51, 3-(3-Methoxyphenoxy)propyl N-{2-chloro-4-[(6,7-dimethoxy-4-quinazolinyl)oxy]phenyl}carbamate]
